This is an account of results in patent US6048856A, “Heterocyclic compounds” (Novo Nordisk A/S, priority 1997, dated 2000).

A word on the inhibition: it is the percentage by which the read-out fell short of the control. Lower therefore signals little suppression.

Where a name gives a salt, the structure may show the parent alone.

In the test the test system is histamine induced paw oedema. Briefly: Histamine induced paw oedema test in rats. It is filed as in vivo, male Sprague-Dawley rats. The following applies: Rattus norvegicus, ip; intraperitoneal, 15 minutes before anaesthetics; paw swelling 20 minutes after histamine 50 microliter. Here is the method: Compounds of formula I may be used to treat all painful, hyperalgesic and/or inflammatory conditions in which C-fibres play a pathophysiological role by eliciting neurogenic pain or inflammation, i.e.:
I. Histamine Induced Paw Oedema
The rat histamine paw oedema test was performed essentially as described by Amann et al. (Europ. J. Pharmacol. 279, 227-231, 1995). In brief 250-300 g male Sprague-Dawley rats were anaesthetized with pentobarbital sodium, and placed on a 32 degree Celsius heated table. Ten minutes later histamine (50 micoliter, 3 mg/ml) was injected in the right hind paw and 20 minutes hereafter the paw swelling was determined by water plethysmography (Ugo Basile). Test compounds were administered intraperitoneally at 15 minutes before the anaesthetics.
Values for inhibition of histamine induced oedema response for some representative compounds are recorded in table 1.

For the molecule `N#CC(c1ccccc1)C1CCN(CCC=C2c3ccccc3CCc3ccccc32)CC1` (stereo not shown) [Example 5, 2-(1-(3-(10,11-Dihydro-5H-dibenzo[a,d]cyclohepten-5-ylidene)-1-propyl)-4-piperidyl)-2-phenylacetonitrile hydrochloride], the inhibition at 1 mg/kg worked out at 30%.
